Data taken from patent EP4205737A1, “COMPOSITION FOR PREVENTION, AMELIORATION, OR TREATMENT OF INFLAMMATORY DISEASES OR IMMUNE DISEASES COMPRISING GANCAONIN N AS ACTIVE INGREDIENT” (UNIVERSITY-INDUSTRY COOPERATION GROUP OF KYUNG HEE …, priority 2020, dated 2022).

How the values were obtained:
[1] = tested on: iNOS; experiment: Western blotting of iNOS in LPS-stimulated RAW264.7 cells; format: cell-based, murine; conditions: LPS 1 µg/mL, 5 to 40 µM, as treatment concentration increased (FIG. 2C)
Description: (§1) RAW264.7 cells and A549 cells were dispensed into 6-well plates (1 × 10^6 cells/well) and cultured under conditions of 37°C and 5% CO2. After the culturing, the Raw 264.7 cells were treated with 1 µg/mL of lipopolysaccharide (LPS) and the A549 cells were treated with 5 µg/mL of lipopolysaccharide (LPS) and with 5 µM to 40 µM of gancaonin N, and the cells were cultured for 24 hours or 6 hours. Then, the cells were lysed using a lysis buffer. In addition, the left lung extracted from each mouse was lysed using RIPA buffer. SDS-PAGE electrophoresis was performed on the cell and tissue lysates to separate proteins by side, and 5% bovine serum albumin was used for culturing and for blocking antibodies against PGE2 (1:500), IL-1β (1:500), IL-6 (1:500), TNF-α (1:500), i-NOS (1:500), COX-2 (1:1000), P-ERK1/2 (1:1000), ERK1/2 (1:3000), P-p38 (1:1000), p38 (1:3000), NF-κB p65 (1:1000), Lamin B1 (1:1000), and β-actin (1: 5,000).
To investigate the anti-inflammatory effect of gancaonin N, the inventors treated Raw264.7 cells with LPS and Gancaonin N, as described in Examples 1 to 6, and evaluated the expression level of inflammation-inducing factors. Thus, the inhibitory effect of gancaonin N on inflammation-related factors was specifically confirmed.

[2] = tested on: IL-1β; experiment: Real-time PCR of IL-1β mRNA in LPS-stimulated A549 cells; format: cell-based, human; conditions: LPS 5 ug/mL, 5 to 40 µM, 24 hours, effect proportional to amount (FIG. 3B)
Description: A549 cells were dispensed into 6-well plates (1 × 10^6 cells/well) and cultured under conditions of 37°C and 5% CO2. After the culturing, the A549 cells were treated with of 5 ug/mL of lipopolysaccharide (LPS) and with 5 µM to 40 µM of gancaonin N, and the cells were then cultured for 24 hours. Afterwards, total RNA was isolated from each treated cell using Hybrid-RTM (GeneAll, South Korea). The isolated total RNA (500 ng) was converted to cDNA sequentially through incubation at 55°C for 60 minutes using oligo (dT) and incubation at 85°C for 5 minutes, and the cDNA was stored at 4°C until being used. In addition, real-time quantitative PCR was performed using Universal SYBR Green Master Mix (Applied Biosystems, USA), and the cDNA was amplified under conditions described below. 95°C for 15 minutes, then 95°C for 30 seconds, 59°C for 30 seconds, and 72°C for 30 seconds were repeated 40 times. […]
To investigate the inhibitory effect of gancaonin on the expression levels of pro-inflammatory cytokines, the mRNA expression levels of tumor necrosis factor-α (hereinafter referred to as TNF-α), interleukin-1 beta (hereinafter referred to as IL-1β), and interleukin 6 (hereinafter referred to as IL-6) which are all known as pro-inflammatory cytokines were measured. […]

[3] = tested on: TNF-α; experiment: Western blotting of TNF-α protein in LPS-stimulated A549 cells; format: cell-based, human; conditions: LPS 5 µg/mL, 5 to 40 µM (FIG. 4A)
Description: as §1
For the pro-inflammatory cytokines whose mRNA expression inhibition was confirmed as above, the expression level of the protein encoded by the mRNA was further checked. To determine the protein expression level, A549 cells were treated with LPS and gancaonin N as described in Examples 1 to 8, and the protein expression levels were checked.

[4] = tested on: p38; experiment: MAPK/NF-κB signaling pathway: p38 in LPS-stimulated A549 cells; format: cell-based, human
Description: as §1
To identify through which pathway the anti-inflammatory response occurs, the role of gancaonin N in the MAPK/NF-κB signaling pathway was investigated. […]

Structure (SMILES): COc1ccc(-c2coc3cc(O)c(CC=C(C)C)c(O)c3c2=O)c(O)c1 [gancaonin N, 5,7-dihydroxy-3-(2-hydroxy-4-methoxyphenyl)-6-(3-methylbut-2-enyl)chromen-4-one]
- expression level of protein of iNOS [1]: significantly decreased
- mRNA expression of IL-1β [2]: significantly inhibited
- protein expression of TNF-α [3]: significantly inhibited
- activity/protein expression levels of p38 ([4]; 5µM to 40 µM 2 hours before LPS treatment (FIG. 5B)): significantly reduced
- amount of gancaonin N at which the inhibitory effect on the activity/protein expression levels of p38 was most excellent ([4]; LPS, tested 5µM to 40 µM): 20 µM
